Test results taken from patent US10954214B2 (Janssen Pharmaceutica NV, priority 2016, dated 2021).

Experiments:
[1] = biological target: full-length MALT1 protein (Strep-MALT1(1-824)-His) (Homo sapiens (Human), UniProt Q9UDY8); assay: MALT1 Biochemical Protease Assay (Ac-LRSR-AMC substrate); conditions: 10 nM FL MALT1, 200 μM Ac-LRSR-AMC, 4 h at RT; read-out: MALT1_Biochemical activity (Ac-LRSR-amc) IC50
How it was run: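 Full-length MALT1 pre-incubated with compounds (30 μM to 0.5 nM, 11 threefold steps) for 50 min at RT. After Ac-LRSR-AMC was added, the reaction ran 4 h at RT and AMC fluorescence was read. IC50 and Hill slope from curve fitting against no-enzyme and no-compound controls.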

[2] = system: IL10 secretion by TMD8 ABC-DLBCL cells; assay: Human IL10 Mesoscale assay (TMD-8); format: cell-based; conditions: Homo sapiens, TMD8; TMD-8 cells, 24 h
How it was run: (§1)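 After 24 h at 37 °C with test compounds (15 μM down to 58.6 nM, 9 twofold steps, 0.3% DMSO), IL6 and IL10 secreted by 100,000 OCI-LY3 or TMD8 cells per well were measured in supernatants with a Mesoscale immunoassay. Data were scaled between DMSO wells (high) and RN486 treatment (low).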

[3] = system: IL6 secretion by TMD8 ABC-DLBCL cells; assay: Human IL6 Mesoscale assay (TMD-8); format: cell-based; conditions: Homo sapiens, TMD8; TMD-8 cells, 24 h
How it was run: as §1

Sequence of full-length MALT1 protein (Strep-MALT1(1-824)-His) (Q9UDY8 whole entry): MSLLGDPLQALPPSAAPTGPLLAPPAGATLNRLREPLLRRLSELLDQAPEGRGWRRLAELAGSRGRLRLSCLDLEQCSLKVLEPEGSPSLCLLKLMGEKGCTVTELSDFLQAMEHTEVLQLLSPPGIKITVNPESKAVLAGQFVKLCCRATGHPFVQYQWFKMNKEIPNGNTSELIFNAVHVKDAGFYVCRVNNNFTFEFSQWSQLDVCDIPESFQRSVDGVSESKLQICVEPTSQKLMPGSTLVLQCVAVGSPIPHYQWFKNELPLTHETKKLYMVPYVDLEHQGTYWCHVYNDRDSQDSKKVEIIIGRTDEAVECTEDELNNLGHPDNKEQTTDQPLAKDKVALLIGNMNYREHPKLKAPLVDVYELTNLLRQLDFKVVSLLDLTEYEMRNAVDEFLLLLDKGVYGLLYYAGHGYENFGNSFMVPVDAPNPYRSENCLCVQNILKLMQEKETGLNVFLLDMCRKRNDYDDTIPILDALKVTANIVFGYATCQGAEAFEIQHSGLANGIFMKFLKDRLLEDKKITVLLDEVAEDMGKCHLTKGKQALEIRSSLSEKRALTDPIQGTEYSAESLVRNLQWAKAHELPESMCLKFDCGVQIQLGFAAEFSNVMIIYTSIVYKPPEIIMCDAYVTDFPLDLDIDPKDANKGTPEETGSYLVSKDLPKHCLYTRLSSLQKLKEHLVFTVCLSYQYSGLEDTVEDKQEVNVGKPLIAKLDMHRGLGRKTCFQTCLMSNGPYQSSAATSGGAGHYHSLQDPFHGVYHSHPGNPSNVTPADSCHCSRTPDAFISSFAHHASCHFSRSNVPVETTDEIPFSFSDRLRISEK

| Structure (SMILES) | IC50 [1] [nM] | IC50 [2] [nM] | IC50 [3] [nM] |
| --- | --- | --- | --- |
| COC(=O)c1cc(-c2ncc(NC(=O)c3cnn(-c4cccc5ncccc45)c3C(F)(F)F)cc2C#N)nn1C [Cpd 267, methyl 3-(3-cyano-5-(1-(quinolin-5-yl)-5-(trifluoromethyl)-1H-pyrazole-4-carboxamido)pyridin-2-yl)-1-methyl-1H-pyrazole-5-carboxylate] | 155 | 56 | 35 |
| O=C(Nc1cnc(-n2nccn2)c(Cl)c1)c1cnn(-c2nsc3ncccc23)c1C(F)(F)F [Cpd 279, N-(5-chloro-6-(2H-1,2,3-triazol-2-yl)pyridin-3-yl)-1-(isothiazolo[5,4-b]pyridin-3-yl)-5-(trifluoromethyl)-1H-pyrazole-4-carboxamide] | 126 | 2750 | 3720 |
| N#Cc1cc(NC(=O)c2cnn(-c3cccc4ncccc34)c2C(F)(F)F)cnc1-n1cccc1 [Cpd 280, N-(5-cyano-6-(1H-pyrrol-1-yl)pyridin-3-yl)-1-(quinolin-5-yl)-5-(trifluoromethyl)-1H-pyrazole-4-carboxamide] | 126 | 2400 | 5500 |
| COc1nccc2c(-n3ncc(C(=O)Nc4cnc(-n5nccn5)c(C#N)c4)c3C(F)(F)F)cccc12 [Cpd 281, N-(5-cyano-6-(2H-1,2,3-triazol-2-yl)pyridin-3-yl)-1-(1-methoxyisoquinolin-5-yl)-5-(trifluoromethyl)-1H-pyrazole-4-carboxamide] | 123 | 3020 | 2570 |
| Cc1cc(NC(=O)c2cnn(-c3cccc4ncccc34)c2C(F)(F)F)cnc1-c1nnn(C)n1 [Cpd 305, N-(5-methyl-6-(2-methyl-2H-tetrazol-5-yl)pyridin-3-yl)-1-(quinolin-5-yl)-5-(trifluoromethyl)-1H-pyrazole-4-carboxamide] | 62 | 7940 | > 15100 |
| N#Cc1cc(NC(=O)c2cnn(-c3cc(N)nc4ccccc34)c2C(F)(F)F)cnc1-n1nccn1 [Cpd 329, 1-(2-aminoquinolin-4-yl)-N-(5-cyano-6-(2H-1,2,3-triazol-2-yl)pyridin-3-yl)-5-(trifluoromethyl)-1H-pyrazole-4-carboxamide] | 661 | 1440 | 1660 |
| O=C(Nc1ccnc(N2CCOCC2)c1)c1cnn(-c2cccc3c(=O)[nH]ccc23)c1C(F)(F)F [Cpd 361, N-(2-morpholinopyridin-4-yl)-1-(1-oxo-1,2-dihydroisoquinolin-5-yl)-5-(trifluoromethyl)-1H-pyrazole-4-carboxamide] | 12300 | 617 | 1260 |
| Cc1cn(-c2nc(C)c(NC(=O)c3cnn(-c4cccc5c(=O)[nH]ccc45)c3C(F)(F)F)cc2Cl)nn1 [Cpd 362, N-(5-chloro-2-methyl-6-(4-methyl-1H-1,2,3-triazol-1-yl)pyridin-3-yl)-1-(1-oxo-1,2-dihydroisoquinolin-5-yl)-5-(trifluoromethyl)-1H-pyrazole-4-carboxamide] | 138 | 1180 | 3470 |
| O=C(Nc1cncc(-n2nccn2)c1)c1cnn(-c2cccc3c(=O)[nH]ccc23)c1C(F)(F)F [Cpd 363, N-(5-(2H-1,2,3-triazol-2-yl)pyridin-3-yl)-1-(1-oxo-1,2-dihydroisoquinolin-5-yl)-5-(trifluoromethyl)-1H-pyrazole-4-carboxamide] | 26300 | > 302 | > 302 |
| CC(=O)c1cc(-n2ncc(C(=O)Nc3cnc(-n4nccn4)c(Cl)c3)c2C(F)(F)F)c2ccccc2n1 [Cpd 375, 1-(2-acetylquinolin-4-yl)-N-(5-chloro-6-(2H-1,2,3-triazol-2-yl)pyridin-3-yl)-5-(trifluoromethyl)-1H-pyrazole-4-carboxamide] | 355 | 85 | 102 |
| CC(=O)c1nccc2c(-n3ncc(C(=O)Nc4cnc(-n5nccn5)c(Cl)c4)c3C(F)(F)F)cccc12 [Cpd 378, 1-(1-acetylisoquinolin-5-yl)-N-(5-chloro-6-(2H-1,2,3-triazol-2-yl)pyridin-3-yl)-5-(trifluoromethyl)-1H-pyrazole-4-carboxamide] | 447 | 182 | 389 |
| O=C(Nc1cnc(-n2nccn2)c(Cl)c1)c1cnn(-c2cnc(C3CCN3)c3ccccc23)c1C(F)(F)F (stereo not drawn) [Cpd 379, 1-(1-(azetidin-2-yl)isoquinolin-4-yl)-N-(5-chloro-6-(2H-1,2,3-triazol-2-yl)pyridin-3-yl)-5-(trifluoromethyl)-1H-pyrazole-4-carboxamide] | 501 | 15 | 21 |
| O=C(Nc1cnc(-n2nccn2)c(Cl)c1)c1cnn(-c2cccc3nc(C4CCN4)ccc23)c1C(F)(F)F (stereo not drawn) [Cpd 381, 1-(2-(azetidin-2-yl)quinolin-5-yl)-N-(5-chloro-6-(2H-1,2,3-triazol-2-yl)pyridin-3-yl)-5-(trifluoromethyl)-1H-pyrazole-4-carboxamide] | 4900 | 43 | 21 |
| NC(=O)c1cc(-n2ncc(C(=O)Nc3cnc(-n4nccn4)c(Cl)c3)c2C(F)(F)F)c2ccccc2n1 [Cpd 386, 4-(4-((5-chloro-6-(2H-1,2,3-triazol-2-yl)pyridin-3-yl)carbamoyl)-5-(trifluoromethyl)-1H-pyrazol-1-yl)quinoline-2-carboxamide] | 107 | 21 | 56 |
| NC(=O)c1ccc2c(-n3ncc(C(=O)Nc4cnc(-n5nccn5)c(Cl)c4)c3C(F)(F)F)cccc2n1 [Cpd 388, 5-(4-((5-chloro-6-(2H-1,2,3-triazol-2-yl)pyridin-3-yl)carbamoyl)-5-(trifluoromethyl)-1H-pyrazol-1-yl)quinoline-2-carboxamide] | 2000 | 54 | 126 |
| NC(=O)c1nccc2c(-n3ncc(C(=O)Nc4cnc(-n5nccn5)c(Cl)c4)c3C(F)(F)F)cccc12 [Cpd 389, 5-(4-((5-chloro-6-(2H-1,2,3-triazol-2-yl)pyridin-3-yl)carbamoyl)-5-(trifluoromethyl)-1H-pyrazol-1-yl)isoquinoline-1-carboxamide] | 186 | 46 | 58 |
| Cc1nc(-n2nccn2)c(Cl)cc1NC(=O)c1cnn(-c2cnc(C(N)=O)c3sccc23)c1C(F)(F)F [Cpd 393, 4-(4-((5-chloro-2-methyl-6-(2H-1,2,3-triazol-2-yl)pyridin-3-yl)carbamoyl)-5-(trifluoromethyl)-1H-pyrazol-1-yl)thieno[2,3-c]pyridine-7-carboxamide] | 12 | 126 | 245 |
| O=C(Nc1cnc(-n2nccn2)c(Cl)c1)c1cnn(-c2cccc3nc(C(F)F)ccc23)c1C(F)(F)F [Cpd 395, N-(5-chloro-6-(2H-1,2,3-triazol-2-yl)pyridin-3-yl)-1-(2-(difluoromethyl)quinolin-5-yl)-5-(trifluoromethyl)-1H-pyrazole-4-carboxamide] | 3470 | 28 | 72 |
| O=C(Nc1cnc(-n2nccn2)c(Cl)c1)c1cnn(-c2cccc3nccc(C(F)F)c23)c1C(F)(F)F [Cpd 396, N-(5-chloro-6-(2H-1,2,3-triazol-2-yl)pyridin-3-yl)-1-(4-(difluoromethyl)quinolin-5-yl)-5-(trifluoromethyl)-1H-pyrazole-4-carboxamide] | 447 | 39 | 51 |
| O=C(Nc1cnc(-n2nccn2)c(Cl)c1)c1cnn(-c2ccc(C(F)F)c3ncccc23)c1C(F)(F)F [Cpd 397, N-(5-chloro-6-(2H-1,2,3-triazol-2-yl)pyridin-3-yl)-1-(8-(difluoromethyl)quinolin-5-yl)-5-(trifluoromethyl)-1H-pyrazole-4-carboxamide] | 214 | 17 | 107 |
| O=C(Nc1cnc(-n2nccn2)c(Cl)c1)c1cnn(-c2cnc(C(F)F)c3sccc23)c1C(F)(F)F [Cpd 398, N-(5-chloro-6-(2H-1,2,3-triazol-2-yl)pyridin-3-yl)-1-(7-(difluoromethyl)thieno[2,3-c]pyridin-4-yl)-5-(trifluoromethyl)-1H-pyrazole-4-carboxamide] | 60 | 56 | 98 |
| O=C(Nc1cnc(-n2nccn2)c(Cl)c1)c1cnn(-c2cncc3sc(C(F)F)cc23)c1C(F)(F)F [Cpd 399, N-(5-chloro-6-(2H-1,2,3-triazol-2-yl)pyridin-3-yl)-1-(2-(difluoromethyl)thieno[2,3-c]pyridin-4-yl)-5-(trifluoromethyl)-1H-pyrazole-4-carboxamide] | 316 | 49 | 52 |
| O=C(Nc1cnc(-n2nccn2)c(Cl)c1)c1cnn(-c2cccc3c(C(F)F)nccc23)c1C(F)(F)F [Cpd 400, N-(5-chloro-6-(2H-1,2,3-triazol-2-yl)pyridin-3-yl)-1-(1-(difluoromethyl)isoquinolin-5-yl)-5-(trifluoromethyl)-1H-pyrazole-4-carboxamide] | 209 | 47 | 126 |
| O=C(Nc1cnc(-n2nccn2)c(Cl)c1)c1cnn(-c2cc(C(F)F)nc3ccccc23)c1C(F)(F)F [Cpd 401, N-(5-chloro-6-(2H-1,2,3-triazol-2-yl)pyridin-3-yl)-1-(2-(difluoromethyl)quinolin-4-yl)-5-(trifluoromethyl)-1H-pyrazole-4-carboxamide] | 56 | 132 | 331 |
